Measurements reported in patent publication US8415469B2, “Compounds and methods for kinase modulation, and indications therefor” (Plexxikon Inc., priority 2005, dated 2013).

How the values were obtained:
Type in all cases: biochemical
ROCK1 = ROCK1 (Homo sapiens, UniProt Q13464); assay: AlphaScreen kinase assay, ROCK1; conditions: read-out: IC50, activity toward kinase ROCK1
From the text: (§1) AlphaScreen assay was used to screen additional kinases. The assay is similarly dependent on the phosphorylation of a peptide substrate. In this assay, an antibody that recognizes phosphorylated substrate is bound to an acceptor bead. The peptide substrate is attached to biotin, which binds to a donor head that contains streptavidin. Thus phosphorylated substrate is bound by antibody and streptavidin, bringing the donor and acceptor heads into close proximity when kinase is not inhibited. The donor produces singlet oxygen which results in emission from the acceptor when they are in close proximity. Conversely, when kinase is inhibited, the donor and acceptor beads are not associated and the emission from the acceptor is reduced.
(§2) AlphaScreen assays were done using compounds dissolved in DMSO to a concentration of 20 mM. The compounds were diluted accordingly to the desired final concentrations in each sample well, using 1:3 serial dilution for a total of 8 concentration points.

IKK beta = target: T1, IKK beta (Homo sapiens, UniProt O14920); assay: AlphaScreen kinase assay, IKK beta; conditions: read-out: IC50, activity toward kinase IKK beta
T1 sequence (O14920 1-756): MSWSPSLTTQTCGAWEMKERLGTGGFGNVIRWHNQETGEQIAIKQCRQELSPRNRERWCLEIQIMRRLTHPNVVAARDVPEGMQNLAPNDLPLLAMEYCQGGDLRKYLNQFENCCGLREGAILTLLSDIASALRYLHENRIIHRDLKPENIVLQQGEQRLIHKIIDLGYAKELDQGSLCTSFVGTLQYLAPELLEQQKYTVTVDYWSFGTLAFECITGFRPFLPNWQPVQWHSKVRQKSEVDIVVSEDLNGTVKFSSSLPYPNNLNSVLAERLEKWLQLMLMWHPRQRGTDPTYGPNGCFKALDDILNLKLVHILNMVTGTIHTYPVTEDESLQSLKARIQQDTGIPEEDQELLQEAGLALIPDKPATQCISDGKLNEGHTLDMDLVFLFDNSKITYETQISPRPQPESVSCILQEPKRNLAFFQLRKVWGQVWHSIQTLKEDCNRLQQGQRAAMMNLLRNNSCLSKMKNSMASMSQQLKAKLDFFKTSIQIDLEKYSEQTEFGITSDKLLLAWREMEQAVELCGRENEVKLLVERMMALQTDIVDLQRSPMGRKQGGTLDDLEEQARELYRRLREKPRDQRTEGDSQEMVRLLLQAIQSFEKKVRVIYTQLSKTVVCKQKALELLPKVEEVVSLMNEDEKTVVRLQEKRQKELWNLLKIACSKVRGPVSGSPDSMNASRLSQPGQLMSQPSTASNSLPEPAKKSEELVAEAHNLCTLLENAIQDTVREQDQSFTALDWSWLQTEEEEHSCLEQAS

Syk = Syk (Homo sapiens, UniProt P43405); assay: AlphaScreen kinase assay, Syk; conditions: read-out: IC50, activity toward kinase Syk
From the text: as §1, §2

MAP4K4 = MAP4K4 (Homo sapiens, UniProt O95819); assay: AlphaScreen kinase assay, MAP4K4; conditions: read-out: IC50, activity toward kinase MAP4K4
PKC theta = target: T2, PKC theta (Homo sapiens, UniProt Q04759); assay: Z'-Lyte FRET kinase assay (Invitrogen), PKC theta; conditions: read-out: IC50, activity toward kinase PKC theta
T2 construct: purchased Invitrogen (Carlsbad, Calif.), screening service
In short: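 Read-out is the coumarin-to-fluorescein emission ratio, which rises when unphosphorylated peptide is cleaved by the development protease. Reactions contain serially diluted compound, 2 μM peptide and 10 μM ATP and run for 1 h at room temperature before 1 h development.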

Gsk3β = Gsk3β (Homo sapiens, UniProt P49841); assay: AlphaScreen kinase assay, Gsk3β; conditions: read-out: IC50, activity toward kinase Gsk3β
In short: (§3)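 Uses phospho-specific antibody on acceptor beads plus streptavidin donor beads capturing biotinylated peptide substrate; singlet oxygen from donor excites nearby acceptor. Inhibitors tested in 8-point, 1:3 titrations starting from 20 mM DMSO solutions.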

MAP2K1 = target: T3, MAP2K1 (Homo sapiens, UniProt Q02750); assay: Z'-Lyte FRET kinase assay (Invitrogen), MAP2K1; conditions: read-out: IC50, activity toward kinase MAP2K1
T3 construct: purchased Invitrogen (assay run by Invitrogen)

Kdr = target: T4, Kdr (Homo sapiens, UniProt P35968); assay: Z'-Lyte FRET kinase assay (Invitrogen), Kdr; conditions: read-out: IC50, activity toward kinase Kdr
T4 construct: purchased Invitrogen (assay run by Invitrogen)

Stk6 = target: T5, Stk6 (Homo sapiens, UniProt O14965); assay: Z'-Lyte FRET kinase assay (Invitrogen), Stk6; conditions: read-out: IC50, activity toward kinase Stk6
T5 construct: purchased Invitrogen (Carlsbad, Calif.), screening service
T5 sequence (O14965 1-403): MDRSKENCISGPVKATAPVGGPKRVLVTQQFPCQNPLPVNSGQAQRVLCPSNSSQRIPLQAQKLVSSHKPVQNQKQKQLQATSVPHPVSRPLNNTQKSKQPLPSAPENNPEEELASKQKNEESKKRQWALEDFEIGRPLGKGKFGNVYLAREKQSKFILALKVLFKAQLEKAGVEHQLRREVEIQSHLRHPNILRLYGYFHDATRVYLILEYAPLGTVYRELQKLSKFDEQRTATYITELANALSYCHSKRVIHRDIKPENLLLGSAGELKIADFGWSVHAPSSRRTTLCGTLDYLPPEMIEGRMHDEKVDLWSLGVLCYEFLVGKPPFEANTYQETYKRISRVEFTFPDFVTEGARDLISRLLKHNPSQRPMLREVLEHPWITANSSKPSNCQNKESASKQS

Akt3 = Akt3 (Homo sapiens, UniProt Q9Y243); assay: AlphaScreen kinase assay, Akt3; conditions: read-out: IC50, activity toward kinase Akt3
In short: as §3

MAPKAPK2 = target: T6, MAPKAPK2 (Homo sapiens, UniProt P49137); assay: Z'-Lyte FRET kinase assay (Invitrogen), MAPKAPK2; conditions: read-out: IC50, activity toward kinase MAPKAPK2
T6 construct: purchased Invitrogen (assay run by Invitrogen)
From the text: The effect of potential modulators of kinase activity can be measured in a variety of different assays known in the art. For example, direct radiometric, indirect FRET or AlphaScreen assays may be used to assess the level of phosphorylation of a substrate in the presence of test compounds in order to determine the inhibitory affect of the compound on the kinase. Invitrogen (Carlsbad, Calif.) uses a FRET based assay for Btk, EGFR, EphB2, Flt3, lrak4, Kdr, MAP2K1, MAPKAPK2, PDGFRB, PKC theta, Stk6 and Yes. For these assays, compounds of the invention were screened by Invitrogen using Z′-Lyte™ kinase assay.
Briefly, the Invitrogen kinase assay involves use of a specific peptide substrate optimized for each kinase, containing a fluorophore at each end that make up the FRET pair. The peptide sensitivity to proteolytic cleavage depends on phosphorylation of the peptide. Non-phosphorylated peptide is cleaved by a protease while peptide phosphorylated by the kinase is not cleaved. Cleavage of the peptide disrupts the FRET between the donor (coumarin) and acceptor (fluorescein) fluorophores, resulting in an increase in the ratio of donor emission to acceptor emission. The emission ratio of coumarin to fluorescein is used to assess the reaction progress. The extent of phosphorylation is determined from the emission ratio, which is low when the kinase is active (phosphorylated peptide is not cleaved, FRET pair connected) or higher for inhibited kinase (non-phosphorylated peptide is cleaved, FRET pair separated). Thus, the assay involves a kinase reaction in the presence of varying concentrations of a given compound, a development reaction with site specific protease, and detection of the fluorescent emission ratio of coumarin and fluorscein. […] Reaction conditions for each kinase are determined to provide optimal reaction times, incubation temperature, kinase and ATP concentrations. Test samples are made up in 1× kinase buffer (50 mM HEPES pH 7.5, 50 mM MgCl2, 5 mM EGTA, 0.05% BRIJ-35) and compound at desired concentration prepared in DMSO such that the final DMSO is 1%. […] Typically, assay plates are prepared to 10 μl final volume per sample, adding 2.5 μl of compound at 4× the desired concentration in 4% DMSO (serial dilution of compound provides concentration curve), 5 μl of the desired kinase mixed with Z′-LYTE™ peptide substrate (2× in 2× kinase buffer, final peptide at 2 μM), and 2.5 μl of 4×ATP solution. All kinase except for MAP2K1 were at 10 μM ATP in the kinase reaction, while MAP2K1 was at 100 μM. Samples are mixed and the kinase reaction is incubated 1 hour at room temperature, after which 5 μl of development solution is added and mixed. After incubation for another 1 hour at room temperature, 5 μl of stop reagent is added to each sample and mixed. The fluorescence signals are measured to determine the emission ratio.

T4 sequence (P35968 20-1356): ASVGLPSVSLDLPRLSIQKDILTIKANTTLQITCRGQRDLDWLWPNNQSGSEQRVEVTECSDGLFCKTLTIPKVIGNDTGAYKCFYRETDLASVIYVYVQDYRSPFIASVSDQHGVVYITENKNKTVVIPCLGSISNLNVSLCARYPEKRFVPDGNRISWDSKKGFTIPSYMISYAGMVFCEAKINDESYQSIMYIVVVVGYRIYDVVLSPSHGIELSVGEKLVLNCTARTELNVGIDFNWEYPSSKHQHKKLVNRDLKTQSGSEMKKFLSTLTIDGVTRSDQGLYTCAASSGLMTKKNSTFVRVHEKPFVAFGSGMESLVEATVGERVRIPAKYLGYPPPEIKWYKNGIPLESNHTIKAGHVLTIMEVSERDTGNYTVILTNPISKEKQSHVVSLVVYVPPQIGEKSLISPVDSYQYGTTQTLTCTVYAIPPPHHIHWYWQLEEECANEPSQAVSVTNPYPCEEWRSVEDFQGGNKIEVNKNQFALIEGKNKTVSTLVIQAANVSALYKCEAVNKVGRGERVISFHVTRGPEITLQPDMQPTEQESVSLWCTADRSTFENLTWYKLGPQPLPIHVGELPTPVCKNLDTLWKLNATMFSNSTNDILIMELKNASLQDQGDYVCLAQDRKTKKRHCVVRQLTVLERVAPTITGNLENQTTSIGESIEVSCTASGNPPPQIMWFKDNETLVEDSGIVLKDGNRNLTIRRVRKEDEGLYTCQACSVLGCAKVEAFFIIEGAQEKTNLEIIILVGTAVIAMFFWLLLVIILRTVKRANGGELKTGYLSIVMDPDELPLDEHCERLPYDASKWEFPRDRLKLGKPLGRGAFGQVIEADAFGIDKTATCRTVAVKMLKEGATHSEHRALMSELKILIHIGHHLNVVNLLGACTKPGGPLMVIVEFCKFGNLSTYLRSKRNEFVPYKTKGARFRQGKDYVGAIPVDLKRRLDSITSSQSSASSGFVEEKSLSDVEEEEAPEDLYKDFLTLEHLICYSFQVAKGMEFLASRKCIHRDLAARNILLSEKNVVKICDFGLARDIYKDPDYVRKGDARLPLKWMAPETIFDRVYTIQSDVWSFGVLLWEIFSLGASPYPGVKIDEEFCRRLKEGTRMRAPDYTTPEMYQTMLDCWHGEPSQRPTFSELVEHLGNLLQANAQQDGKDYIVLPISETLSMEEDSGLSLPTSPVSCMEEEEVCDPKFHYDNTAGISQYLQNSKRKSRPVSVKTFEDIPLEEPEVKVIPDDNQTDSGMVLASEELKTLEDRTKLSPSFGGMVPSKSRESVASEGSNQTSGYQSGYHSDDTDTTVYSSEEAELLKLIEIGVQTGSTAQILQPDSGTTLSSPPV
T2 sequence (Q04759 whole entry): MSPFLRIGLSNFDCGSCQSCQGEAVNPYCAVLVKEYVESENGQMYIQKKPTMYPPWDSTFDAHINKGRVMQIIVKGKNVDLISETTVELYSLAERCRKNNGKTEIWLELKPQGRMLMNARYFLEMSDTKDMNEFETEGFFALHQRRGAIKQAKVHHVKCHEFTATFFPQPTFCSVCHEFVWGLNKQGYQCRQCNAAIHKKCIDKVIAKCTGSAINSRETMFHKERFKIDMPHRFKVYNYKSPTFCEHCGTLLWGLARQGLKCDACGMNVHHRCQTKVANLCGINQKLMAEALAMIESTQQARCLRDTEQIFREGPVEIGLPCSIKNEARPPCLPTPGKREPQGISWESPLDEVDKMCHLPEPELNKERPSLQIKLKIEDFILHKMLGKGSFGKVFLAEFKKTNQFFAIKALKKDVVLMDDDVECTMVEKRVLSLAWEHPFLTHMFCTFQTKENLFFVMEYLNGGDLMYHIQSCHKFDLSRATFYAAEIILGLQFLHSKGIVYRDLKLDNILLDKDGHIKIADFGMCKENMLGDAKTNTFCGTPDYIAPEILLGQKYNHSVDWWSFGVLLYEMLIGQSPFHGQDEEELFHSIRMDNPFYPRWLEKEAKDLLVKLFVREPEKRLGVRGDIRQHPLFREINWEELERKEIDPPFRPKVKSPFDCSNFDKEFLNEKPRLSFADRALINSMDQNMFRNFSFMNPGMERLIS
Chain of MAP4K4 (O95819 whole entry): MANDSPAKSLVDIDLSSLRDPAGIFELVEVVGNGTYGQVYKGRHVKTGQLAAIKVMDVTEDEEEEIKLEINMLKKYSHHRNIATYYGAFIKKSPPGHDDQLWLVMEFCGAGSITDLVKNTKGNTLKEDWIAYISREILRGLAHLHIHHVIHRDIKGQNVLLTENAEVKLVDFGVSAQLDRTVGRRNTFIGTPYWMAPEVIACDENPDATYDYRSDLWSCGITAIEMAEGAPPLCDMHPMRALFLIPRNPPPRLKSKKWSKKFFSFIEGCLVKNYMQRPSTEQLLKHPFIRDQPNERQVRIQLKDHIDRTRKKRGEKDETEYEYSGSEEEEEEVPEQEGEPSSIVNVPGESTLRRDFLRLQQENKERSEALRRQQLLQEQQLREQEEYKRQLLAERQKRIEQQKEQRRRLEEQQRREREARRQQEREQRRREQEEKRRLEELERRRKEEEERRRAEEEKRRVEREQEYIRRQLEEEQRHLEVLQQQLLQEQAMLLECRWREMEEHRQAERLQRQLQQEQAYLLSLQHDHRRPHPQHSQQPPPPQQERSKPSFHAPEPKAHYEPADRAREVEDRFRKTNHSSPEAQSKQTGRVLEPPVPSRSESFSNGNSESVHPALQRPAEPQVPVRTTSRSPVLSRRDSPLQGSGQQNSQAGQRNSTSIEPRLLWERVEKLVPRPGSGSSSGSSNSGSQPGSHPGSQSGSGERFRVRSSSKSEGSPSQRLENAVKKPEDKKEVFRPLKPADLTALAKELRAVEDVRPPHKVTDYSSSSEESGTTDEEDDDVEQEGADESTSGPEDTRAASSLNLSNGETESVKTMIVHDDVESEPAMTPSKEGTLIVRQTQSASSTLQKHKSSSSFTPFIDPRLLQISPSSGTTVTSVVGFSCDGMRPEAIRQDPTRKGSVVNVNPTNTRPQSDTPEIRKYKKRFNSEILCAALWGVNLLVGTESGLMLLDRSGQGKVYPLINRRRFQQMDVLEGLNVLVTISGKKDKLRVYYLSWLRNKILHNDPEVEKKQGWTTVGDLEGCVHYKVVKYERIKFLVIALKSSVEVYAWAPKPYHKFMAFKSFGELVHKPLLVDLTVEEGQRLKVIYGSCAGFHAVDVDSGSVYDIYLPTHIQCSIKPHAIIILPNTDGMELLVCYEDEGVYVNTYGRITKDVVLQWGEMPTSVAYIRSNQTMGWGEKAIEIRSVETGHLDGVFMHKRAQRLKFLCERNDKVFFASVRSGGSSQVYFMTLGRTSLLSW
Chain of Gsk3β (P49841 whole entry): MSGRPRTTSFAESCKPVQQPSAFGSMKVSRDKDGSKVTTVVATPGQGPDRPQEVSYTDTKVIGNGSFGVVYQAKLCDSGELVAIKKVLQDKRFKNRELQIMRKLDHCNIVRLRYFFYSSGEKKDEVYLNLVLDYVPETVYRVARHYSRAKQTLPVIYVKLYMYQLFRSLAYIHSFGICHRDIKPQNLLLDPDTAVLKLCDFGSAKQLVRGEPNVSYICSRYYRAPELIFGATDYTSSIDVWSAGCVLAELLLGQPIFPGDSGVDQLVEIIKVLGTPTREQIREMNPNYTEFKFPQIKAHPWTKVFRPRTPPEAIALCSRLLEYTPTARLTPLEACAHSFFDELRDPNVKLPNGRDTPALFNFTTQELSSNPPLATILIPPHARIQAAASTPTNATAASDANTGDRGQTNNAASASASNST
Chain of Akt3 (Q9Y243 whole entry): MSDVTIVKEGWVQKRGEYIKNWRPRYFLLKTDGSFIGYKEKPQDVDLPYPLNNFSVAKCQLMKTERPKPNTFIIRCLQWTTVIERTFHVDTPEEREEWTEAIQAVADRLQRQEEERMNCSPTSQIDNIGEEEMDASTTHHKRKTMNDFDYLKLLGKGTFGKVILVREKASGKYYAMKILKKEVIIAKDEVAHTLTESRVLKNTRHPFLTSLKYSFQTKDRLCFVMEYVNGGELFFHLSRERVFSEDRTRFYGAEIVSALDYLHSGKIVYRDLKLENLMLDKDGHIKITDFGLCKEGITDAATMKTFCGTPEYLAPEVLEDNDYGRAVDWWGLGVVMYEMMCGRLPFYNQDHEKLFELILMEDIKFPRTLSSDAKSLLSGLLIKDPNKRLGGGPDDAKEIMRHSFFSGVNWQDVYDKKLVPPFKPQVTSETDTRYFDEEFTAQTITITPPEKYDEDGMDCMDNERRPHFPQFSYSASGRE
T6 sequence (P49137 whole entry): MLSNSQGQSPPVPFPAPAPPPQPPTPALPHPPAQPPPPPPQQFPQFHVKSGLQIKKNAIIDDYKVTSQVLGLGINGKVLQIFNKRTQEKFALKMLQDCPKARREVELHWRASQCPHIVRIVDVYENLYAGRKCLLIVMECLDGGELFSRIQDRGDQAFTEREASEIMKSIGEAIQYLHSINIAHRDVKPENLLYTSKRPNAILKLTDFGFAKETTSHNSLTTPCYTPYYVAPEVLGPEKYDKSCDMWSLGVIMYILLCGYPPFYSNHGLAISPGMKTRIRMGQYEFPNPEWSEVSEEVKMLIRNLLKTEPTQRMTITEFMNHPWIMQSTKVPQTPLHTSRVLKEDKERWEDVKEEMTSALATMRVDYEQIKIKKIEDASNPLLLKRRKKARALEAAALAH
T3 sequence (Q02750 whole entry): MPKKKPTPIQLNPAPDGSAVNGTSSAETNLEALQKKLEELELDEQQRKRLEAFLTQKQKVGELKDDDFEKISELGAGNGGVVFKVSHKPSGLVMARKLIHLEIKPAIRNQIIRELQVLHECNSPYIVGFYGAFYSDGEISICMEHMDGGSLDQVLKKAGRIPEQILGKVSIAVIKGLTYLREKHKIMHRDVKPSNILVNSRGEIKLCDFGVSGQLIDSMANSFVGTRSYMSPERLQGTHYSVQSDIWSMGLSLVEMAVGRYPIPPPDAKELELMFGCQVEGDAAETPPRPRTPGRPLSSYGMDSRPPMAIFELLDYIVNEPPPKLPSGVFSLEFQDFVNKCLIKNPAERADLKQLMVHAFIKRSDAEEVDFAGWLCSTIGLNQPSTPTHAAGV

IC50 (ROCK1): ≤ 10 µM
IC50 (IKK beta): ≤ 10 µM
IC50 (Syk): ≤ 10 µM
IC50 (MAP4K4): ≤ 10 µM
IC50 (PKC theta): ≤ 10 µM
IC50 (Gsk3β): ≤ 10 µM
IC50 (MAP2K1): ≤ 10 µM
IC50 (Kdr): ≤ 10 µM
IC50 (Stk6): ≤ 10 µM
IC50 (Akt3): ≤ 10 µM
IC50 (MAPKAPK2): ≤ 10 µM
Structure (SMILES): OCc1cccc(-c2ccnc3[nH]cc(Sc4ccccn4)c23)c1 [Compound P-0057]
